Experimental data reported in ChEMBL document CHEMBL5584223, “Research progress of prodrugs for the treatment of cerebral ischemia” (Eur J Med Chem, 2024).
Converted amounts (≈) assume the structure as drawn. One block for each compound: values may come before it.

Assays:
Rattus norvegicus [1] = test: Protection against MCAO-induced Sprague-Dawley rat assessed as reduction in infarct volume in brain at 20 mg/kg, iv measured for 24 hrs relative to control; type: functional; design: scale not given: the % may be the effect or the level left
Platelet [2] = test: Inhibition of ADP-induced platelet aggregation in New Zealand White rabbit; type: functional, cell-based; details: Oryctolagus cuniculus
Platelet [3] = test: Inhibition of AA-induced platelet aggregation in New Zealand White rabbit; type: functional, cell-based; details: Oryctolagus cuniculus
[4] = Plasma concentration in human; type: ADME
[5] = Cmax in Sprague-Dawley rat at 12.5 mg/kg, iv measured for 24 hrs by LC-MS/MS analysis; type: ADME, organism-based; details: in vivo
[6] = AUC (0 to infinity) in Sprague-Dawley rat at 12.5 mg/kg, iv incubated for 24 hrs by LC-MS/MS analysis; type: ADME, organism-based; details: in vivo
[7] = AUC (0 to t) in Sprague-Dawley rat at 12.5 mg/kg, iv incubated for 24 hrs by LC-MS/MS analysis; type: ADME, organism-based; details: in vivo
Rattus norvegicus [8] = test: Protection against MCAO-induced rat assessed as reduction in infarct volume in brain at 40 mg/kg, iv measured after 24 hrs relative to control; type: functional; design: scale not given: the % may be the effect or the level left
[9] = Ratio of drug concentration in rat brain to plasma measured after 0.5 hrs by LC-MS/MS analysis; type: ADME; details: read-out: BPR
[10] = Ratio of drug concentration in rat brain to plasma measured after 1 hrs by LC-MS/MS analysis; type: ADME; details: read-out: BPR
[11] = Half life in rat at 15 mg/kg, iv measured after 24 hrs by LC-MS/MS analysis; type: ADME, organism-based; details: in vivo
[12] = Ratio of drug concentration in rat brain to plasma measured after 6 hrs by LC-MS/MS analysis; type: ADME; details: read-out: BPR
Platelet [13] = test: Inhibition of ADP-induced platelet aggregation in New Zealand White rabbit at 1 uM relative to control; type: functional; details: Oryctolagus cuniculus
Mus musculus = test: Neuroprotective activity against hypoxia-ischemia brain injured mouse model assessed as reduction in infarct volume at 20 mg/kg, iv measured after 72 hrs by immuno-histochemistry based staining analysis relative to control; type: functional; design: scale not given: the % may be the effect or the level left
[14] = Solubility of compound in PBS at pH 7.4; type: physicochemical
[15] = Lipophilicity, logP of compound; type: physicochemical; details: octanol/water
SH-SY5Y = test: Neuroprotective activity against MPP+-induced human SH-SY5Y cells assessed as reduction in cell death at 20 uM measured after 48 hrs by MTT assay; type: functional; design: scale not given: the % may be the effect or the level left

IC50 (Platelet [2]): 700 nM | IC50 (Platelet [3]): 420 nM
Compound: CCCC[C@H]1OC(=O)c2ccccc21
Activity (Rattus norvegicus [1]): 78.21%

Compound: O=C(Nc1cc(C(F)(F)F)cc(C(F)(F)F)c1)c1cc(Cl)ccc1OP(=O)(O)O
Cp [4]: > 500 ng/mL

Compound: CCCC[C@H](OC(C)=O)c1ccccc1C(=O)O
Activity (Rattus norvegicus [1]): 66.12%

Cmax [5]: 3330 ng/mL | AUC [6]: 4579 h/ng/mL | AUCt [7]: 3927.4 h/ng/mL
Compound: O=P([O-])([O-])Oc1ccc(-c2cc(=S)ss2)cc1.[Na+].[Na+]

IC50 (Platelet [2]): 100 nM | IC50 (Platelet [3]): 110 nM
Compound: CCCC[C@H](OC(=O)CN1CCC(O[N+](=O)[O-])CC1)c1ccccc1C(=O)OCCCCCCOc1ccc(-c2cc(=S)ss2)cc1

Compound: CCCC[C@H](OC(C)=O)c1ccccc1C(=O)O.N=C(N)NCCC[C@H](N)C(=O)O
Activity (Rattus norvegicus [8]): 78.21%

Kp at 0.5 h [9]: 1.99 | Kp at 1 h [10]: 1.27 | half-life [11]: 44 min | Kp at 6 h [12]: 4.8
Compound: CCCCC(OC(=O)CN(C)C)c1ccccc1C(=O)Oc1ccc(/C=C/C(=O)OC[C@@H]2OC(O)[C@@H](O)[C@H](O)[C@H]2O)cc1OC (stereo partly specified)

Compound: CCCCC(OC(=O)CN(CC)CC)c1ccccc1C(=O)Oc1ccc(/C=C/C(=O)OCCCCO[N+](=O)[O-])cc1OC (stereo unspecified)
inhibition at 1 µM (Platelet [13]): 88.5% | Activity (Rattus norvegicus [8]): 18.3%

Compound: CC(=N)NCc1cccc(/C=[N+](\[O-])C(C)(C)C)c1
Activity (Mus musculus): 30%

Compound: Cc1cc(O)n(-c2ccc(F)cc2)n1
Activity (Rattus norvegicus [1]): 32.46%

Compound: COC(=O)[C@H]1O[C@@H](Oc2cc3oc(-c4ccc(OCCCCOC(=O)C5=CCc6cc(OC)ccc6N5C)cc4)cc(=O)c3c(O)c2O)[C@H](O)[C@H](O)[C@H]1O (single isomer, unassigned)
solubility [14]: 183 µg/mL (≈ 245 µM) | logP [15]: 1.76 | Activity (SH-SY5Y): 65%

Compound: CC(=O)Oc1ccccc1C(=O)O [ASPIRIN]
inhibition at 1 µM (Platelet [13]): 73.7%

Compound: CCCCC1OC(=O)c2ccccc21 (stereo not drawn) [RAC-3-N-BUTYLPHTHALIDE]
inhibition at 1 µM (Platelet [13]): 51.4%

Compound: O=C(O)[C@H]1O[C@@H](Oc2cc3oc(-c4ccc(O)cc4)cc(=O)c3c(O)c2O)[C@H](O)[C@@H](O)[C@@H]1O [SCUTELLARIN]
logP [15]: 0.015

IC50 (Platelet [2]): 360 nM
Compound: Clc1ccccc1CN1CCc2sccc2C1 [TICLOPIDINE]
